Structures are written as SMILES. Read-outs that look alike come from different tables or passages of the source. Some results are limits rather than exact numbers.

Experiment [1] deals with HDAC activity in primary mouse cortical cultures. Nature of the experiment: Whole-Cell Histone Deacetylase (HDAC) Inhibition Assay in Primary Mouse Cortical Cultures. In kind it is cell-based. An outline of the steps: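 Primary neocortical neurons from E17 Balb/C mouse embryos were plated at 50000 cells/well and treated at DIV9 with ten-point DMSO dilutions for 16-18 h at 37° C, in triplicate. BOC-Lys(Ac)-AMC substrate was then added for 1 h. Fluor de Lys developer containing 1 uM TSA produced a fluorophore, which was read.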

Experiment [2] addresses one or more of HDAC-1, HDAC-2, HDAC-3, HDAC-4, HDAC-5, HDAC-6, HDAC-7, HDAC-8, HDAC-9, HDAC-10 and HDAC-11. Nature of the experiment: Inhibition of Histone Deacetylase Enzymatic Activity (Boc-Lys(Ac)-AMC substrate, Fluor-de-Lys developer). The class given is biochemical. Particulars: read-out: HDAC Inhibition (IC50 μM) HDAC Enzyme. How it is done:
The following protocol is used to assay the compounds of the disclosure.
The mixture is pre-incubated for 5 minutes at room temperature. The reaction is started by bringing the temperature to 37° C. and adding 16 μl substrate. Total reaction volume is 50 μl.
In the Tables 8, 9 and 10, A≦0.05 μM; 0.05 μM<B≦0.1 μM; 0.1 μM<C≦1 μM; and 1 μM<D≦10 μM.

The mark [3] stands for this setting: whole-cell (WC), mouse cortical neurons, Table 10, read-out: HDAC Inhibition (IC50 μM) WC mouse cortical neurons.
[4] abbreviates: whole-cell (WC), mouse cortical neurons, Table 9, read-out: HDAC Inhibition (IC50 μM) WC mouse cortical neurons.
The mark [5] stands for this setting: whole-cell (WC), mouse cortical neurons, Table 8, read-out: HDAC Inhibition (IC50 μM) WC mouse cortical neurons.
The mark [6] stands for this setting: read-out: HDAC Inhibition (IC50 μM) WC mouse cortical neurons, Table 10.

For the compound `O=C(NO)c1ccc(CN2C(=O)c3ccccc3Oc3ccccc32)cc1` [N-hydroxy-4-((11-oxodibenzo[b,f][1,4]oxazepin-10(11H)-yl)methyl)benzamide], the IC50 (as a rule, the point on the concentration scale where inhibition reaches its midpoint) in experiment [1] (setting [3]) is less than 1 µM; in experiment [2] (Table 10), less than 0.05 µM.

With `Cc1cccc(N2C[C@H]3C[C@@H]2CN3c2ncc(C(=O)NO)cn2)c1` [N-hydroxy-2-((1R,4R)-5-m-tolyl-2,5-diazabicyclo[2.2.1]heptan-2-yl)pyrimidine-5-carboxamide], the IC50 is less than 1 µM in experiment [1] (setting [4]) and 0.05 to 0.1 µM in experiment [2] (Table 9).

With `CS(=O)(=O)c1cccc2c1Oc1ccccc1N=C2c1ccc(C(=O)NO)cc1` [(Z)—N-hydroxy-4-(4-(methylsulfonyl)dibenzo[b,f][1,4]oxazepin-11-yl)benzamide], the results for the IC50 in experiment [1] (setting [5]) and in experiment [2] (Table 8) were 1 to 5 µM and less than 0.05 µM, respectively.

Regarding `CN(C)C(=O)c1cccc(N2C[C@@H]3C[C@H]2CN3c2ncc(C(=O)NO)cn2)c1` [2-((1S,4S)-5-(3-(dimethylcarbamoyl)phenyl)-2,5-diazabicyclo[2.2.1]heptan-2-yl)-N-hydroxypyrimidine-5-carboxamide], the IC50 in experiment [1] (setting [4]) was less than 1 µM; in experiment [2] (Table 9) it was less than 0.05 µM.

In the case of `O=C(NO)c1cnc(N2CCN(C3=Nc4ccccc4Oc4ccc(Cl)cc43)CC2)nc1` [(E)-2-(4-(2-chlorodibenzo[b,f][1,4]oxazepin-11-yl)piperazin-1-yl)-N-hydroxypyrimidine-5-carboxamide], the IC50 in experiment [1] (setting [5]) is 5 to 15 µM; in experiment [2] (Table 8), less than 0.05 µM.

Regarding `O=C(NO)c1ccc(OCCN2C(=O)c3ccccc3Oc3ccccc32)c(F)c1`, the IC50 is less than 1 µM in experiment [1] (setting [3]) and 0.05 to 0.1 µM in experiment [2] (Table 10).

In the case of `O=C(CCCCCCC(=O)NC1c2ccccc2C=Cc2ccccc21)NO`, the IC50 lay within 1 to 5 µM in experiment [1] (setting [3]) and 0.1 to 1 µM in experiment [2] (Table 10).

Take `CN1C(=O)CN=C(c2ccccc2)c2ccc(CCC(=O)NO)cc21` [(Z)-N-hydroxy-3-(1-methyl-2-oxo-5-phenyl-2,3-dihydro-1H-benzo[e][1,4]diazepin-8-yl)propanamide]: the results for the IC50 in experiment [1] (setting [6]) and in experiment [2] (Table 10) were 5 to 15 µM and 0.1 to 1 µM, respectively.

As to `CSc1cccc2c1Oc1ccccc1N=C2c1ccc(C(=O)NO)cc1` [(Z)—N-hydroxy-4-(4-(methylthio)dibenzo[b,f][1,4]oxazepin-11-yl)benzamide], the IC50 in experiment [1] (setting [5]) was 1 to 5 µM; in experiment [2] (Table 8) it was less than 0.05 µM.

Regarding `O=C(CCCCCC(=O)NC1c2ccccc2C=Cc2ccccc21)NO`, the IC50 in experiment [1] (setting [3]) lay in the range of 1 to 5 µM; in experiment [2] (Table 10), 0.1 to 1 µM.

For the compound `O=C(NO)c1ccc(C2=Nc3ccccc3Cn3cccc32)cc1` [(Z)-4-(5H-benzo[e]pyrrolo[1,2-a][1,4]diazepin-11-yl)-N-hydroxybenzamide], the IC50 is 1 to 5 µM in experiment [1] (setting [5]) and less than 0.05 µM in experiment [2] (Table 8).

Turning to `O=C(NO)c1ccc(C2=Nc3ccccc3Oc3cc(C(F)(F)F)ccc32)cc1` [(Z)—N-hydroxy-4-(3-(trifluoromethyl)dibenzo[b,f][1,4]oxazepin-11-yl)benzamide], the values for the IC50 in experiment [1] (setting [5]) and in experiment [2] (Table 8) were more than 15 µM and 0.05 to 0.1 µM, respectively.

`Cc1cccc2c1Oc1ccccc1C(c1ccc(C(=O)NO)cc1)=N2` [(Z)—N-hydroxy-4-(6-methyldibenzo[b,f][1,4]oxazepin-11-yl)benzamide]: the half-maximal inhibitory concentration (IC50) is 5 to 15 µM in experiment [1] (setting [5]) and 0.1 to 1 µM in experiment [2] (Table 8).

As for `O=C(NO)c1ccc(-c2ccc3c(c2)C(N2CCOCC2)=Nc2ccccc2O3)cc1` [(E)-N-hydroxy-4-(11-morpholinodibenzo[b,f][1,4]oxazepin-2-yl)benzamide], the IC50 in experiment [1] (setting [5]) is more than 15 µM; in experiment [2] (Table 8) it was less than 0.05 µM.

On to `O=C(NO)c1ccc(C2Nc3ccccc3Oc3ccccc32)cc1` (centres unmarked) [4-(10,11-dihydrodibenzo[b,f][1,4]oxazepin-11-yl)-N-hydroxybenzamide], for which the IC50 in experiment [1] (setting [5]) was 1 to 5 µM; in experiment [2] (Table 8) it was less than 0.05 µM.

In the case of `O=C(NO)c1cnc(N2C[C@@H]3C[C@H]2CN3C(=O)c2cccc(C(F)(F)F)c2)nc1` [N-hydroxy-2-((1S,4S)-5-(3-(trifluoromethyl)benzoyl)-2,5-diazabicyclo[2.2.1]heptan-2-yl)pyrimidine-5-carboxamide], the IC50 lay within 1 to 5 µM in experiment [1] (setting [4]) and 0.05 to 0.1 µM in experiment [2] (Table 9).

In the case of `O=C(CCCCCN1C(=O)CN=C(c2ccccc2)c2ccccc21)NO` [(Z)-N-hydroxy-6-(2-oxo-5-phenyl-2,3-dihydro-1H-benzo[e][1,4]diazepin-1-yl)hexanamide], the results for the IC50 in experiment [1] (setting [6]) and in experiment [2] (Table 10) were 1 to 5 µM and 0.1 to 1 µM, respectively.

Regarding `O=C(NO)c1ccc(C2=Nc3ccccc3N(C3CC3)c3ccc(F)cc32)cc1` [(Z)-4-(5-cyclopropyl-2-fluoro-5H-dibenzo[b,e][1,4]diazepin-11-yl)-N-hydroxybenzamide], the IC50 lay in the range of 1 to 5 µM in experiment [1] (setting [5]) and 0.05 to 0.1 µM in experiment [2] (Table 8).

In the case of `O=C(NO)c1ccc(C2=Nc3ccccc3S(=O)(=O)c3ccccc32)cc1`, the figures for the IC50 in experiment [1] (setting [5]) and in experiment [2] (Table 8) were 5 to 15 µM and 1 to 10 µM, respectively.

Regarding `O=C(/C=C/c1ccc2c(c1)C=Cc1ccccc1N2CC1CC1)NO` [(E)-3-((Z)-5-(cyclopropylmethyl)-5H-dibenzo[b,f]azepin-2-yl)-N-hydroxyacrylamide], the concentration for half-maximal inhibition (IC50) in experiment [1] (setting [3]) lay in the range of 5 to 15 µM; in experiment [2] (Table 10), 0.1 to 1 µM.

For the compound `O=C(NO)c1cnc(N2C[C@@H]3C[C@H]2CN3C(=O)c2ccccc2)nc1` [2-((1S,4S)-5-benzoyl-2,5-diazabicyclo[2.2.1]heptan-2-yl)-N-hydroxypyrimidine-5-carboxamide], the IC50 in experiment [1] (setting [4]) is less than 1 µM; in experiment [2] (Table 9), less than 0.05 µM.

On to `O=C(NO)c1ccc(C2=Nc3ccccc3Oc3c(O)cccc32)cc1` [(Z)—N-hydroxy-4-(4-hydroxydibenzo[b,f][1,4]oxazepin-11-yl)benzamide], for which the values for the IC50 in experiment [1] (setting [5]) and in experiment [2] (Table 8) were less than 1 µM and 0.05 to 0.1 µM, respectively.

In the case of `CC(C)N1c2ccccc2N=C(c2ccc(C(=O)NO)cc2)c2cccnc21` [(Z)-N-hydroxy-4-(11-isopropyl-11H-benzo[b]pyrido[2,3-e][1,4]diazepin-5-yl)benzamide], the results for the IC50 in experiment [1] (setting [5]) and in experiment [2] (Table 8) were less than 1 µM and less than 0.05 µM, respectively.

For `O=C(/C=C/c1ccc(CN2C(=O)c3ccccc3Oc3ccccc32)cc1)NO`, the IC50 in experiment [1] (setting [3]) was 1 to 5 µM; in experiment [2] (Table 10) it was less than 0.05 µM.

For `O=C(NO)c1ccc(OCCN2C(=O)c3ccccc3Oc3ccccc32)cc1`, the IC50 in experiment [1] (setting [3]) is less than 1 µM; in experiment [2] (Table 10), less than 0.05 µM.

Regarding `O=C(NO)c1ccc(C2=Nc3ccc(C(F)(F)F)cc3Oc3ccccc32)cc1` [(Z)—N-hydroxy-4-(7-(trifluoromethyl)dibenzo[b,f][1,4]oxazepin-11-yl)benzamide], the IC50 in experiment [1] (setting [5]) was more than 15 µM; in experiment [2] (Table 8), 0.1 to 1 µM.

On to `O=C(NO)c1ccc(CN2c3ccccc3C=Cc3ccccc32)cc1` [(Z)-4-((5H-dibenzo[b,f]azepin-5-yl)methyl)-N-hydroxybenzamide], for which the values for the IC50 in experiment [1] (setting [3]) and in experiment [2] (Table 10) were 5 to 15 µM and less than 0.05 µM, respectively.

In the case of `O=C(NO)c1ccc(C2=Nc3ccsc3Oc3ccccc32)cc1` [(Z)-4-(benzo[f]thieno[2,3-b][1,4]oxazepin-5-yl)-N-hydroxybenzamide], the IC50 in experiment [1] (setting [5]) lay in the range of 1 to 5 µM; in experiment [2] (Table 8) it was 0.1 to 1 µM.

Consider `O=C(NO)c1cnc(N2C[C@@H]3C[C@H]2CN3c2cccc3nonc23)nc1` [2-((1S,4S)-5-(benzo[c][1,2,5]oxadiazol-4-yl)-2,5-diazabicyclo[2.2.1]heptan-2-yl)-N-hydroxypyrimidine-5-carboxamide], for which the IC50 was less than 1 µM in experiment [1] (setting [4]) and less than 0.05 µM in experiment [2] (Table 9).

Take `O=C(CCCCCN1C(=O)c2ccccc2N(C2CC2)c2ccccc21)NO` [6-(5-cyclopropyl-11-oxo-5H-dibenzo[b,e][1,4]diazepin-10(11H)-yl)-N-hydroxyhexanamide]: the values for the IC50 in experiment [1] (setting [3]) and in experiment [2] (Table 10) were 1 to 5 µM and 0.1 to 1 µM, respectively.

As to `O=C(Cc1ccc(CN2c3ccccc3C=Cc3ccccc32)cc1)NO` [(Z)-2-(4-((5H-dibenzo[b,f]azepin-5-yl)methyl)phenyl)-N-hydroxyacetamide], the IC50 in experiment [1] (setting [3]) fell in the range of 5 to 15 µM; in experiment [2] (Table 10) it was 0.1 to 1 µM.

As for `O=C(NO)c1cnc(N2C[C@@H]3C[C@H]2CN3C(=O)C(c2ccccc2)c2ccccc2)nc1` [2-((1S,4S)-5-(2,2-diphenylacetyl)-2,5-diazabicyclo[2.2.1]heptan-2-yl)-N-hydroxypyrimidine-5-carboxamide], the IC50 in experiment [1] (setting [4]) lay in the range of 1 to 5 µM; in experiment [2] (Table 9) it was 0.05 to 0.1 µM.

On to `O=C(CCCCCCCN1C(=O)c2cccnc2N(C2CC2)c2ccccc21)NO` [8-(11-cyclopropyl-5-oxo-5H-benzo[b]pyrido[2,3-e][1,4]diazepin-6(11H)-yl)-N-hydroxyoctanamide], for which the IC50 is less than 1 µM in experiment [1] (setting [3]) and 0.1 to 1 µM in experiment [2] (Table 10).

On to `CC(C)OC(=O)N1C[C@@H]2C[C@H]1CN2c1ncc(C(=O)NO)cn1` [(1S,4S)-isopropyl 5-(5-(hydroxycarbamoyl)pyrimidin-2-yl)-2,5-diazabicyclo[2.2.1]heptane-2-carboxylate], for which the IC50 in experiment [1] (setting [4]) is less than 1 µM; in experiment [2] (Table 9), less than 0.05 µM.

For the compound `O=C(CCCCN1c2ccccc2C=Cc2ccccc21)NO` [(Z)-5-(5H-dibenzo[b,f]azepin-5-yl)-N-hydroxypentanamide], the IC50 in experiment [1] (setting [3]) is 5 to 15 µM; in experiment [2] (Table 10), 0.1 to 1 µM.

`O=C(NO)c1ccc(OCCN2C(=O)c3ccccc3Oc3cc(Cl)ccc32)cc1`: the IC50 in experiment [1] (setting [3]) was 1 to 5 µM; in experiment [2] (Table 10), less than 0.05 µM.

For the compound `O=C(NO)c1ccc(OCCN2CCOc3ccccc3C2=O)cc1`, the results for the IC50 in experiment [1] (setting [3]) and in experiment [2] (Table 10) were 1 to 5 µM and less than 0.05 µM, respectively.

The record behind these values is patent US20170000749A1, “Methods for Treating Cognitive Disorders Using Inhibitors of Histone Deacetylase” (Forum Pharmaceuticals, Inc., priority 2008, published 2017).
